We go through 17 compounds from patent US10654873B2, “Cytotoxic agents and conjugates thereof” (priority 2016, dated 2020).

The test system of data set [1] is HER2-positive tumour cell line, SK-BR-3. Kind of data set: In vitro potency / cell viability assay (CellTiter-Glo) in SK-BR-3 cell line. The class given is cell-based. From the text:
(§1) Loss of tumour cell viability following treatment with cytotoxic drugs or ADCs in vitro can be measured by growing cell lines in the presence of increasing concentrations of drugs or ADCs and quantifying the loss of proliferation or metabolic activity using CellTiter-Glo® Luminescence reagent (Promega). The protocol describes cell seeding, drug treatment and determination of the cell viability in reference to untreated cells based on ATP synthesis, which is directly related to the number of cells present in the well.
HER2-positive tumour cell line, SK-BR-3 (ATCC-HTB-30), was grown in McCoy's 5A medium complemented with 10% foetal bovine serum, 100 u/mL Penicillin and 100 μg/mL Streptomycin. SK-BR-3 cells were detached, seeded at 5,000 cells per well (100 μL/well) into poly-D-lysine coated clear bottom white-walled 96-well plates and incubated for 24 h at 37° C. and 5% CO2.
Serial dilutions of compounds were prepared in triplicate using the relevant cell culture medium as diluent. The CD30-positive Karpas-299 cells were treated with 50 μL compounds at 2× assay concentration. Medium from the SK-BR-3 assay plates was removed and replaced by 100 μL serially diluted compounds at 1× assay concentration. The assay concentrations are specified in Table 1. The cells were then incubated with the compounds (total volume 100 μL/well), at 37° C. and 5% CO2 for a further 96 h.
(§2) At the end of the incubation, cell viability was measured using the CellTiter-Glo® Luminescence reagent, as described by the manufacturer's instructions. The data was subsequently analysed using a four parameter non-linear regression model.
(§3) Viability was expressed as % of untreated cells and calculated using the following formula: […]
The % viability (Y-axis) was plotted against the logarithm of drug concentration in nM (X-axis) to extrapolate the IC50 values for all compounds.

Data set [2] is described as follows: Stability in mouse serum (LC-Orbitrap-MS). It counts as in vitro ADME. As to conditions: 37° C., 4 and 7 days, 90% (v/v) mouse serum, 0.05 mg/mL. Here is the method:
Solutions of compounds 26 and 78 (comparator) in a 50/50 v/v mixture of DMF:buffer solution (20 mM sodium phosphate, 150 mM sodium chloride, 20 mM EDTA, pH 7.5) (0.5 mg/mL) were diluted to 0.05 mg/mL in mouse serum (90% (v/v) serum content). An aliquot of each sample corresponding to the ‘0’ time point was immediately frozen at −80° C., while the remaining sample was incubated at 37° C. for 7 d. Additional aliquots were taken after 4 and 7 d and frozen at −80° C. Prior to analysis, the samples were removed from the freezer and maytansinoid-related species were extracted from the serum by protein precipitation. Protein precipitation was performed by adding acetonitrile (75% v/v) to each time-point aliquot, and after gentle mixing, allowing the mixtures to stand at 4° C. for 2 h. The precipitated protein was then separated by centrifugation (1400×g, 30 min, 4° C.) and the supernatant containing the extracted maytansinoid-related species were analysed by LC-Orbitrap-MS.
The samples were further diluted with water resulting in a 15% v/v acetonitrile solution. An aliquot (2.5 μL) of each solution was then injected onto a nano-liquid chromatography MS system, consisting of a Dionex ULTIMATE 3000 UPLC fitted with a PepMap C18 column (0.075×150 mm), coupled online to an Orbitrap-MS instrument operated in ES positive mode at 75K resolution using lock mass. […]

Data set [3] can be described thus: Stability of atropisomers on heating in DMSO (HPLC). It counts as physicochemical. The settings on record: 50° C., 1 h. Here is the method: The stability of the atropisomers was investigated by heating solutions of compounds 80 and 81 in DMSO at 50° C. for 1 h.
Data set [4] deals with CD30-positive human T cell lymphoma cell line Karpas-299. Kind of data set: In vitro potency / cell viability assay (CellTiter-Glo) in Karpas-299 cell line. It counts as cell-based. The settings on record: 96 h incubation.
Text: as §1
The CD30-positive human T cell lymphoma cell line Karpas-299 was obtained from Dr Abraham Karpas at the University of Cambridge. The cells were grown in RPMI medium supplemented with 10% foetal bovine serum, 100 U/mL Penicillin and 100 μg/mL Streptomycin. […]
as §2, §3
Loss of tumour cell viability following treatment with ADCs incorporating maytansinoids of the invention was tested by growing cell lines in the presence of increasing concentrations of ADCs and quantifying the loss of proliferation or metabolic activity as described in Example 2. […]
In general terms: In ATP-based viability assays light output follows the ATP content of the culture.

Where [5] appears, read: Homo sapiens, SK-BR-3, free compounds, as described in Example 2, read-out: Average IC50 (nM) SK-BR-3 Cell line.
[6] abbreviates: free compounds, as described in Example 2, read-out: Average IC50 (nM) SK-BR-3 Cell line.
Where [7] appears, read: Homo sapiens, SK-BR-3, 96 h, 96 h incubation, CellTiter-Glo, read-out: IC50 (nM) SKBR3 Cell line.

“Also recorded” adds a separate entry of the source. Like-named read-outs stand apart in the source and are kept apart here.

By IC50 is commonly meant the concentration needed to halve the response being measured. Turning to `COc1cc2cc(c1-c1ccc(NC(=O)CCC(C)S)c(Cl)c1)N(C)C(=O)C[C@H](OC(=O)C(C)C)[C@]1(C)O[C@H]1[C@H](C)[C@@H]1C[C@@](O)(NC(=O)O1)[C@H](OC)/C=C/C=C(\C)C2` (stereo partly drawn) [Compound 18], the IC50 in data set [1] (setting [5]) was determined as 0.9 nM.

As for `COc1cc2cc(c1/C=C/CN)N(C)C(=O)C[C@H](OC(=O)C(C)C)[C@]1(C)O[C@H]1[C@H](C)[C@@H]1C[C@@](O)(NC(=O)O1)[C@H](OC)/C=C/C=C(\C)C2` [Compound 31, reference compound], the IC50 in data set [1] (setting [5]) came to 33.4 nM.

For `COc1cc2cc(c1-c1ccc(NC(=O)CCS)cc1)N(C)C(=O)C[C@H](OC(=O)C(C)C)[C@]1(C)O[C@H]1[C@H](C)[C@@H]1C[C@@](O)(NC(=O)O1)[C@H](OC)/C=C/C=C(\C)C2` [Compound 15], the IC50 in data set [1] (setting [5]) came out at 5.4 nM.

Turning to `COc1cc2cc(c1-c1ccc(NC(=O)CCS)c(Cl)c1)N(C)C(=O)C[C@H](OC(=O)C(C)C)[C@]1(C)O[C@H]1[C@H](C)[C@@H]1C[C@@](O)(NC(=O)O1)[C@H](OC)/C=C/C=C(\C)C2` [Compound 23], in data set [1] (setting [5]), the IC50 was 4.2 nM.

As to `COc1cc2cc(c1-c1ccc(NC(=O)CCC(C)S)cc1)N(C)C(=O)C[C@H](OC(=O)C(C)C)[C@]1(C)O[C@H]1[C@H](C)[C@@H]1C[C@@](O)(NC(=O)O1)[C@H](OC)/C=C/C=C(\C)C2` (stereo partly drawn) [Compound 6], in data set [1] (setting [5]), the IC50 came out at 2.7 nM.

Turning to `COc1cc2cc(c1-c1ccc(NC(=O)CCC(C)(C)S)c(Cl)c1)N(C)C(=O)C[C@H](OC(=O)C(C)C)[C@]1(C)O[C@H]1[C@H](C)[C@@H]1C[C@@](O)(NC(=O)O1)[C@H](OC)/C=C/C=C(\C)C2` [Compound 21], in data set [1] (setting [5]), the IC50 is 1.7 nM.

Regarding `COc1cc2cc(c1-c1ccc(NC(=O)CCC(C)SSC(C)CCC(=O)O)cc1)N(C)C(=O)C[C@H](OC(=O)C(C)C)[C@]1(C)O[C@H]1[C@H](C)[C@@H]1C[C@@](O)(NC(=O)O1)[C@H](OC)/C=C/C=C(\C)C2` (stereo partly drawn) [Compound 26], in data set [2], the “degradation in mouse serum” value was “no comparable degradation products were observed; also recorded: no degradation products equivalent to A and B”.

On to `COc1cc2cc(c1-c1ccc(N)cc1Cl)N(C)C(=O)C[C@H](OC(=O)C(C)C)[C@]1(C)O[C@H]1[C@H](C)[C@@H]1C[C@@](O)(NC(=O)O1)[C@H](OC)/C=C/C=C(\C)C2` (single isomer, unassigned) [Compound 80], for which the “stability of atropisomers (HPLC chromatograms)” value in data set [3] was “no changes were observed”. In addition, the IC50 in data set [1] (setting [6]) was found to be 3.6 nM.

Turning to `COc1cc2cc(c1-c1ccc(NC(=O)OC(C)(C)C)cc1)N(C)C(=O)C[C@H](OC(=O)C(C)C)[C@]1(C)O[C@H]1[C@H](C)[C@@H]1C[C@@](O)(NC(=O)O1)[C@H](OC)/C=C/C=C(\C)C2` [Compound 3, 4-(N-Bocamino)phenyl-AP3], the IC50 in data set [4] was found to be 0.7 nM; in data set [1] (setting [7]) it was 4 nM.

Regarding `COc1cc2cc(c1-c1ccc(N)c(Cl)c1)N(C)C(=O)C[C@H](OC(=O)C(C)C)[C@]1(C)O[C@H]1[C@H](C)[C@@H]1C[C@@](O)(NC(=O)O1)[C@H](OC)/C=C/C=C(\C)C2` [Compound 5], in data set [1] (setting [5]), the IC50 was found to be 1.2 nM.

Consider `COc1cc2cc(c1-c1ccc(N)cc1Cl)N(C)C(=O)C[C@H](OC(=O)C(C)C)[C@]1(C)O[C@H]1[C@H](C)[C@@H]1C[C@@](O)(NC(=O)O1)[C@H](OC)/C=C/C=C(\C)C2` (single isomer, unassigned) [Compound 81], for which, in data set [3], the “stability of atropisomers (HPLC chromatograms)” value is listed as “no changes were observed”. Moreover, the IC50 in data set [1] (setting [6]) worked out at 0.9 nM.

As for `COc1cc2cc(c1-c1ccc(N)cc1)N(C)C(=O)C[C@H](OC(=O)[C@H](C)N(C)C(C)=O)[C@]1(C)O[C@H]1[C@H](C)[C@@H]1C[C@@](O)(NC(=O)O1)[C@H](OC)/C=C/C=C(\C)C2` [Compound 32], in data set [1] (setting [5]), the 50% inhibitory concentration (IC50) was 5.5 nM.

As to `COc1cc2cc(c1-c1ccc(N)cc1)N(C)C(=O)C[C@H](OC(=O)C(C)C)[C@]1(C)O[C@H]1[C@H](C)[C@@H]1C[C@@](O)(NC(=O)O1)[C@H](OC)/C=C/C=C(\C)C2` [Compound 4], in data set [1] (setting [5]), the IC50 came to 1.2 nM.

`COc1cc2cc(c1-c1ccc(NC(=O)CCCS)cc1)N(C)C(=O)C[C@H](OC(=O)C(C)C)[C@]1(C)O[C@H]1[C@H](C)[C@@H]1C[C@@](O)(NC(=O)O1)[C@H](OC)/C=C/C=C(\C)C2` [Compound 12]: in data set [1] (setting [5]), the IC50 was found to be 4.2 nM.

As for `COc1cc2cc(c1Cl)N(C)C(=O)C[C@H](OC(=O)[C@H](C)N(C)C(=O)CCC(C)SSC(C)CCC(=O)O)[C@]1(C)O[C@H]1[C@H](C)[C@@H]1C[C@@](O)(NC(=O)O1)[C@H](OC)/C=C/C=C(\C)C2` (stereo partly drawn) [Compound 78, reference compound], the “degradation in mouse serum” value in data set [2] is reported as “significant degradation”.

`COc1cc2cc(c1Cl)N(C)C(=O)C[C@H](OC(=O)[C@H](C)N(C)C(=O)CCS)[C@]1(C)O[C@H]1[C@H](C)C1C[C@@](O)(NC(=O)O1)[C@H](OC)/C=C/C=C(\C)C2` [DM1, reference compound]: the results for the IC50 in data set [4] and in data set [1] (setting [7]) were 9 nM and 10 nM, respectively.

As to `COc1cc2cc(c1-c1ccc(NC(=O)CCC(C)(C)S)cc1)N(C)C(=O)C[C@H](OC(=O)C(C)C)[C@]1(C)O[C@H]1[C@H](C)[C@@H]1C[C@@](O)(NC(=O)O1)[C@H](OC)/C=C/C=C(\C)C2` [Compound 9], the IC50 in data set [1] (setting [5]) is 7.4 nM.
